The target of one data set is T1, pYStat3C328A (Homo sapiens, UniProt P40763, C328A).
T1 construct: made in house; host or cells: E. coli BL21(DE3) TKB1 (inducible tyrosine kinase)
The experiment in a line: EMSA with purified mutant pYStat3C328A. In kind it is biochemical. Conditions: 3 μM H182, 30 min. An excerpt: (§1) This construct was used to generate the mutants, Stat3C328A, Stat3C426A, Stat3C468A, and Stat3C542S, as described in detail in Supplementary Information “Methods”.
(§2) The expression of un-phosphorylated and tyrosine phosphorylated His-tagged recombinant wtStat3 and mutant Stat3 proteins in BL21 (DE3) bacterial cells is described in detail in Supplementary Information “Methods”.
(§3) Given the MS data, we conducted site-directed mutagenesis analysis for the effects of Cys mutations (Cys-to-Ala or Cys-to-Ser mutations) on the inhibitory activities or potencies of the compounds. […]
(§4) In another case, the nuclear extract was pre-incubated with the radiolabeled probe for 30 min at 30 °C prior to incubation with increasing concentration of H182 at room temperature for 30 min and subjecting to EMSA analysis. Bands corresponding to Stats DNA- binding activities were scanned and quantified using ImageJ and plotted as a percentage of control (vehicle) against the concentration of the inhibitor, from which the IC50 values were derived . […]
(§5) These studies were performed as previously reported using the v-Src -transformed NIH3T3/v-Src fibroblasts [1 -5] . […] Luciferase activity was normalized to total protein concentration of cell lysate, which was determined by Bradford assay (Bio-Rad, Hercules, CA) . […]
For orientation: Mobility shift assays separate free from complexed probe on a gel.

The target in a further data set is T2, pYStat3C542S (Homo sapiens, UniProt P40763, C542S).
T2 construct: made in house; host or cells: E. coli BL21(DE3) TKB1 (inducible tyrosine kinase)
T2 sequence (P40763 127-711 C542S): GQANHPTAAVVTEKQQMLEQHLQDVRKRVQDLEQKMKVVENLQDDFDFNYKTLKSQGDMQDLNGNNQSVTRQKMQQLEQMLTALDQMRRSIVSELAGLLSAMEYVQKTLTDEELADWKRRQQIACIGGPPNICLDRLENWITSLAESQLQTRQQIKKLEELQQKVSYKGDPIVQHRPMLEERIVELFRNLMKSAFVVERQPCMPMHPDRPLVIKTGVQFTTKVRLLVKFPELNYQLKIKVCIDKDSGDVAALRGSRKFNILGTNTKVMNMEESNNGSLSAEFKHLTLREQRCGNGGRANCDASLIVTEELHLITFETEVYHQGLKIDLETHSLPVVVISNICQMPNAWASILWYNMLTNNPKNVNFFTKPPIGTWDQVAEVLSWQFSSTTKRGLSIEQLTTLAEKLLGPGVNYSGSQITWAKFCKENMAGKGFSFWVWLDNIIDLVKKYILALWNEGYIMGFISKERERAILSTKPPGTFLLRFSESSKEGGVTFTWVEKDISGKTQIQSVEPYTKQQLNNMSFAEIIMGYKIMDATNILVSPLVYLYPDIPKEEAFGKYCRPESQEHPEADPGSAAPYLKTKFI
The experiment in a line: EMSA with purified mutant pYStat3C542S. In kind it is biochemical. The conditions noted are these: 3 μM H182, 30 min.
From the text: as §1, §2, §3, §4, §5

A short description of data set [1]: Mouse liver microsome stability. The conditions noted are these: liver microsomes, read-out: Metabolic Stability MLM t1/2. In kind it is in vitro ADME. On the procedure: Solubility, human (HLM) and mouse liver microsomal (MLM), and plasma stability studies were performed by Eurofins Cerep Panlabs and Eurofin Discovery Services (www.eurofins.com/PharmaDiscovery), while protein binding studies were performed by Sanford Burnham Prebys Chemical Biology & Drug Discovery Core using standard protocols.
In general terms: Liver microsomes are a subcellular fraction often used to study metabolism.

Data set [2] can be described thus: Human hepatocyte stability. In kind it is in vitro ADME. On the procedure:
(§6) The in vivo activity of a compound is influenced by its overall bioavailability, which is also driven by parameters, such as solubility, permeability, and metabolism. […] These values are all above the industry cut-off of 60 μg/ml. […] It has CLint in human hepatocytes of 16 μL/min/10^6 cells, which falls into moderate stability range [43].

The target in the next data set is CYP3A (Homo sapiens, UniProt P08684). Kind of data set: CYP inhibition, CYP3A. It is filed as in vitro ADME. The method, then:
as §6

The target of another data set is T3, hERG (Homo sapiens, UniProt Q12809).
T3 construct: Eurofins-CEREP (contract research organisation that ran the assay)
T3 sequence (Q12809 whole entry): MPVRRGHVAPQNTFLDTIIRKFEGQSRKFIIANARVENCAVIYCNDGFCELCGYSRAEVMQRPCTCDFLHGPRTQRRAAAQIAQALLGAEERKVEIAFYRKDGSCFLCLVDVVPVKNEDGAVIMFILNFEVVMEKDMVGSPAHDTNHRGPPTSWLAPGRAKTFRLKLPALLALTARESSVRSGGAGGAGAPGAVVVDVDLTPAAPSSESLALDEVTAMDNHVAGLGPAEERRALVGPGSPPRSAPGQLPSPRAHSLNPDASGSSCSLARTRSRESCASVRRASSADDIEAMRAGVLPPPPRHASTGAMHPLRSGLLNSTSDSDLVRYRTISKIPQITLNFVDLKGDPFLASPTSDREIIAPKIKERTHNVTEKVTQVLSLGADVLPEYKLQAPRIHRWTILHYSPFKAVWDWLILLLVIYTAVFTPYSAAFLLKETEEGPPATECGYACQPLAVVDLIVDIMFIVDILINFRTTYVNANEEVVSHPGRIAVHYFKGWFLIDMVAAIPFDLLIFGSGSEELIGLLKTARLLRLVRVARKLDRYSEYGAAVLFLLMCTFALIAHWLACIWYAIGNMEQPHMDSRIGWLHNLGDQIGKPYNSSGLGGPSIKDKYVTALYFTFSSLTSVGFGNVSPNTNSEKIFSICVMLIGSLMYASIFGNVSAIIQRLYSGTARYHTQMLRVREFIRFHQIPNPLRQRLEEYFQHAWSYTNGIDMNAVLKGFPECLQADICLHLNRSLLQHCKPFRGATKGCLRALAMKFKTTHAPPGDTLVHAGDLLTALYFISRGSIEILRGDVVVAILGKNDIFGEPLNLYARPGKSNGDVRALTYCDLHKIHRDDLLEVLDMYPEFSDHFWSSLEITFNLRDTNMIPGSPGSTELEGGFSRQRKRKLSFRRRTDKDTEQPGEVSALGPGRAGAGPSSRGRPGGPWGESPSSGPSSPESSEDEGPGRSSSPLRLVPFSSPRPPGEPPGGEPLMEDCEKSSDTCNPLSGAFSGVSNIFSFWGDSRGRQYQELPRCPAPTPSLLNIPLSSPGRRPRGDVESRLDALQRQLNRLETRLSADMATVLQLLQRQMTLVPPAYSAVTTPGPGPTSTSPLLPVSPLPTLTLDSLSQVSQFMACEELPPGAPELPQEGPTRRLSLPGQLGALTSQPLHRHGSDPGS
Kind of data set: hERG Qpatch assay. It is filed as cell-based.

Data set [3] concerns the target T4, glucocorticoid receptor (GR) (Homo sapiens, UniProt P04150).
T4 construct: Eurofins-CEREP (SafetyScreen44 panel)
Kind of data set: CEREP SafetyScreen44, glucocorticoid receptor. It is filed as binding.

Where two headings read alike, the source gives them in different places.

Sequence of CYP3A (P08684 2-503): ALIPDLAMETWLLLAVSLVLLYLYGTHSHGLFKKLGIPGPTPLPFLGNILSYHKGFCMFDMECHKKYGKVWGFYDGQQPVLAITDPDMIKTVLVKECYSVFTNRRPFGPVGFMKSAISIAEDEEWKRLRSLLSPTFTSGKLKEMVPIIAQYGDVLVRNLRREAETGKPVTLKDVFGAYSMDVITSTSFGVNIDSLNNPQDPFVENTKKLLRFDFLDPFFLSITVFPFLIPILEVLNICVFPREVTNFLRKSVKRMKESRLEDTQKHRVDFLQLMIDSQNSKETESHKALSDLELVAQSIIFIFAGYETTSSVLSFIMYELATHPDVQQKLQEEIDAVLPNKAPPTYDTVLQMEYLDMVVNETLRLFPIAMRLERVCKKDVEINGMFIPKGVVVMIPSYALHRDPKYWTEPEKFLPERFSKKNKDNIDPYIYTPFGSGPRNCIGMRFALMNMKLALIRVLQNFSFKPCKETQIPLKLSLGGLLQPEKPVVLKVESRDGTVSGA
T4 sequence (P04150 whole entry): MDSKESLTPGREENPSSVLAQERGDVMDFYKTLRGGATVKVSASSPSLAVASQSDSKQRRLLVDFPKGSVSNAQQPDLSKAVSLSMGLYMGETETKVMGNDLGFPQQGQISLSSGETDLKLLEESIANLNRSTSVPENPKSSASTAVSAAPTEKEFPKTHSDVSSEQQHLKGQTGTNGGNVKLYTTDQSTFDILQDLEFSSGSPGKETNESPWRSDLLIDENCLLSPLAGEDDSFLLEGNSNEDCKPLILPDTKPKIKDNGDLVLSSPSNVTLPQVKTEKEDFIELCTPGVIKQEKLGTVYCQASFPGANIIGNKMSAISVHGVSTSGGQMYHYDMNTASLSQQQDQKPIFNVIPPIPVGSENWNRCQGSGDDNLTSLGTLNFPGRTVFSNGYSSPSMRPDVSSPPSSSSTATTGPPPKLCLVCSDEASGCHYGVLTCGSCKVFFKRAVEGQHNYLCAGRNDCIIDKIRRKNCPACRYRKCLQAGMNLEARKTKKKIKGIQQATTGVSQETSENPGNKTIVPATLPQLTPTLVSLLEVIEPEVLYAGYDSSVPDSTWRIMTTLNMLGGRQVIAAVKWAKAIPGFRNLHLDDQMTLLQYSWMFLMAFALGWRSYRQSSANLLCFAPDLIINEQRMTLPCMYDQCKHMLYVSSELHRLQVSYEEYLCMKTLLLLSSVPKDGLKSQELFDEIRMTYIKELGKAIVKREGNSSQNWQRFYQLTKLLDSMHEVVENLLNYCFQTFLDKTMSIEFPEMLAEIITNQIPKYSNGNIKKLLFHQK
T1 sequence (P40763 127-711 C328A): as the sequence (P40763 127-711 C542S) above, with C202A, S416C counted along it

What is called IC50 is the midpoint of a concentration-inhibition curve. By inhibition is commonly meant the change of the read-out against control, counted positive when it falls. Read a low inhibition as a weak effect. On to `O=C([C@H]1CCN1S(=O)(=O)c1c(F)c(F)c(F)c(F)c1F)N(Cc1ccc(C2CCCCC2)cn1)c1ccc2c(=O)[nH]ncc2c1` [Compound H182], for which the “Effect on DNA-binding activity of pYStat3C328A” value on pYStat3C328A is on record as “strong inhibition”. The “Effect on DNA-binding activity of pYStat3C542S” value on pYStat3C542S is recorded as “strong inhibition”. Also, the half-life in data set [1] was greater than 2.5 h; in data set [2] (hepatocytes, read-out: Human Hepatocytes t1/2), 1.13 h. Besides, the “Metabolic Stability Human Hepatocytes CLint” value in data set [2] is on record as 14.6 μL/min/10^6 cells. Moreover, in data set [2] (hepatocytes, read-out: Metabolic Stability Human Hepatocytes CLint), the hepatocyte CLint turned out to be 16 µL/min/1e6 cells. The 50% inhibitory concentration (IC50) on CYP3A (probe midazolam, midazolam site, read-out: CYP Inhibition CYP3A (Midazolam) IC50) was 6900 nM; at CYP3A (probe testosterone, testosterone site, read-out: CYP Inhibition CYP3A (Testosterone) IC50) it was 1200 nM; against hERG, greater than 10000 nM; in data set [3] (SafetyScreen44 follow-up dose-response), 110 nM. Besides, in data set [3] (10 μM H182), the inhibition at 10 µM was greater than 80%.

Values taken from paper PMC9867837 (Cancer letters, 2022).
